The results in this text go back to patent US20210113617A1, “METHODS AND COMPOSITIONS FOR TH9 CELL MEDIATED CANCER TREATMENT” (Wake Forest University Health Sciences, priority 2018, published 2021).

The test system of one assay is OT-II-Th17 cells. The assay can be described thus: QNZ on restimulated OT-II-Th17 cells (CFSE dilution). It counts as cell-based, mice. To be noted: restimulated with antigen-pulsed APCs for 2 days in presence of QNZ. How it is done:
(§1) CFSE labeling and cytotoxicity assay. In some experiments, Th cells were incubated for 5 minutes at 37° C. with 1 μM CFSE in PBS, and then washed extensively. We measured proliferation of T cells by the relative CFSE dilution method after stimulation or transfer into tumor-bearing mice. In the cytotoxicity assay, B16-OVA target cells or B16 non-target cells for OT-II T cells were labeled with 5 μM CFSE. B16-OVA target cells or B16 non-target control cells were incubated alone in triplicate with the OT-II T cells at a 1:10 effector-to-target ratio. For TRP-1 T cells, B16 target cells or MC38 non-target control cells were used. After 18 hours, CFSE^+ tumor cells from each target and control well were stained using FVD and analyzed by FACS. FVD^+ tumor cells were considered as dead cells. The percent specific lysis was calculated as (FVD^+ target−FVD^+ control)×100%.
(§2) Moreover, we further confirmed the increased proliferative capacity of Th9 cells by CFSE-dilution assay and by calculating the cell yields after the first-round activation and the subsequent reactivation (FIGS. 5G-5H).

The subject of another assay is OT-II-Th9 cells. The assay can be described thus: QNZ on restimulated OT-II-Th9 cells (CFSE dilution, cell yield, Annexin V/PI). It counts as cell-based, mice. On the procedure: as §1, §2

On to `Nc1ccc2ncnc(NCCc3ccc(Oc4ccccc4)cc3)c2c1` [QNZ], for which the “proliferation of Th17” value in the assay on OT-II-Th17 cells was “minimal effect”. Moreover, in the assay with OT-II-Th9 cells (restimulated with OT-II peptide-pulsed APCs in presence of QNZ for 48 hours), the Th9 hyperproliferation result is “significantly arrested Th9 hyperproliferation”. In addition, the Th9 cell apoptosis result in the assay with OT-II-Th9 cells (restimulated with antigen-pulsed APCs for 2 days in presence of QNZ) was “did not induce Th9 cell apoptosis”.
